{
  "source": "patent US8592462B2",
  "about": "“Pirfenidone treatment for patients with atypical liver function” (Intermune, Inc., priority 2008, dated 2013)",
  "key": {"[1]": {"settings": "IPF patients, compassionate use; cited from earlier work"}, "[2]": {"assay": "Gamma-glutamyl transferase observed in patients receiving pirfenidone", "format": "in vivo", "settings": "some patients receiving pirfenidone", "excerpt": "In some embodiments, the biomarker of liver function is alanine transaminase, aspartate transaminase, bilirubin, and/or alkaline phosphatase. […] In any of the embodiments described herein, biomarkers of liver function can exclude gamma-glutamyl transferase. In another embodiment, the abnormal level of alanine transaminase, aspartate transaminase, or alkaline phosphatase is greater than about 2.5-fold increased compared to the upper limit of normal (ULN). In a related embodiment, the abnormal level of alanine transaminase, aspartate transaminase, or alkaline phosphatase is greater than about 2.5- to about 5-fold increased compared to the upper limit of normal (ULN), i.e. a “liver function Grade 2 abnormality”. In some embodiments, the abnormal level of bilirubin is greater than about 1.5- to about 3-fold increased compared to the upper limit of normal (ULN), i.e., a “liver function Grade 2 abnormality”."}, "[3]": {"settings": "one year treatment, chronic pulmonary fibrosis; cited from earlier work"}, "[4]": {"assay": "Study of 345 idiopathic pulmonary fibrosis patients on pirfenidone 2403 mg/day: liver function test (AST/ALT) abnormalities and response to dosing regimen", "format": "in vivo", "parameters": "key to Grade of AST or ALT abnormality after dose modification / Grade of ALT after dose modification / Grade of liver function test at resolution: 0: WNL; 1: >ULN-2.5 × ULN; >2.5-5 × ULN; 3: >5-20 × ULN; 4: >20 × ULN", "method": "Patients begin pirfenidone treatment by receiving escalating doses of pirfenidone over a period of 15 days until the full maintenance dose is reached. Specifically, from days 1 to 7, patients are administered one capsule of 267 mg pirfenidone three times per day. During days 8 to 14, patients receive two capsules of 267 mg pirfenidone three times per day. From day 15 onward, patients are treated with three capsules of 267 mg pirfenidone three times per day. Pirfenidone is administered orally, and each dose should be taken with food. If the patient is unable to eat, then the pirfenidone dose should be taken with milk or juice (excluding grapefruit juice).\nOnce the full maintenance dose is reached, pirfenidone is administered orally to patients three times per day to provide a daily dose of 2403 mg pirfenidone. Each of the three doses of 801 mg pirfenidone includes three capsules of 267 mg pirfenidone each. The contents of the pirfenidone 267 mg capsules are pirfenidone (82.15%); croscarmellose sodium (8.15%); microcrystalline cellulose (7.39%); povidine, USP, EP (1.85%); and magnesium stearate (0.46%).\nPatients are treated with pirfenidone for up to 72 weeks. Some patients are treated longer than 72 weeks. At weeks 2, 4, 6, 12, and every 12 weeks (±2 weeks) thereafter during the treatment period, with the exception of week 72 and the treatment completion visit, patients are examined and histories are collected as detailed in the steps below.\n4. Clinical laboratory tests are performed, including hematology, serum chemistries, pregnancy tests for women of childbearing capacity, and urinalysis with microscopic examination.\nPatients were treated with pirfenidone in accordance with Example 1. […] As described in Example 1, serum chemistry tests were performed at scheduled intervals during the treatment period to monitor various parameters, including biomarkers of liver function such as alanine transaminase (ALT), aspartate transaminase (AST), bilirubin, alkaline phosphate (ALP), and gamma-glutamyl transferase (GGT).\nThe patient continued to receive the full target dose of 2403 mg/day. While receiving the full target dose, the patient was monitored for AST, ALT, and bilirubin levels.\nIn one patient, study drug dose was reduced to 1602 mg/day for the remainder of study participation (from Day 51 to Day 602), and the Grade 1 AST or ALT abnormality returned to Grade 0. For the second patient, study drug dose was reduced to 1602 mg/day and then increased to 2403 mg/day for remainder of study participation, and ALT returned to Grade 0. The third patient had study drug dose reduced to 801 mg/day, ultimately completing study at 1602 mg/day, at which time ALT returned to Grade 0. The remaining patients (46 patients) received no dose modification."}},
  "data": [
    {"smiles": "Cc1ccc(=O)n(-c2ccccc2)c1", "note": "[pirfenidone, 5-methyl-1-phenyl-2-(1H)-pyridone]", "values": [
      {"measurement": "adverse events in hematology or blood chemistry", "setting": "[1]", "result": "No adverse events in hematology or blood chemistry"},
      {"measurement": "gamma-glutamyl transferase", "setting": "[2]", "result": "Elevated gamma-glutamyl transferase has been observed in some patients receiving pirfenidone, without clinical liver impairment"},
      {"measurement": "liver dysfunctions, hematologic abnormalities, allergic or shock reactions during treatment", "setting": "[3]", "result": "no liver dysfunctions, hematologic abnormalities, or allergic or shock reactions"},
      {"measurement": "Grade of ALT after dose modification", "setting": "[4]; Grade 1 patient, dose reduced to 801 mg/day, completing study at 1602 mg/day", "result": 0},
      {"measurement": "Grade of AST or ALT abnormality after dose modification", "setting": "[4]; Grade 1 patient, dose reduced to 1602 mg/day for remainder of study (Day 51 to Day 602)", "result": 0},
      {"measurement": "Grade of ALT after dose modification", "setting": "[4]; Grade 1 patient, dose reduced to 1602 mg/day, then increased to 2403 mg/day for remainder of study", "result": 0},
      {"measurement": "Grade of elevation at end of study", "setting": "[4]; Grade 2 patient continued on 2403 mg/day, history of steatosis, Grade 1 before treatment, dose reduced for unrelated reasons (rash, diarrhea)", "result": "1 (>ULN-2.5 × ULN)"},
      {"measurement": "Grade of AST elevation at the last documented assessment", "setting": "[4]; Grade 2 patient, no dose modification, Grade 1 AST and ALT at baseline", "result": "1 (>ULN-2.5 × ULN)"},
      {"measurement": "Grade of liver function test at resolution", "setting": "[4]; Grade 2 patient, continued full daily dose of 2403 mg/day", "result": 0},
      {"measurement": "transaminase levels after re-escalation", "setting": "[4]; Grade 2 patient, treatment temporarily discontinued for acute cerebral artery occlusion, escalated back to 2403 mg/day", "result": "returned to normal"},
      {"measurement": "Grade of abnormality at last documented values", "setting": "[4]; Grade 3 patient with Grade 1 at screening and/or baseline, discontinued for lung transplant", "result": "1 (>ULN-2.5 × ULN)"},
      {"measurement": "AST and ALT elevations at the last documented value", "setting": "[4]; Grade 3 patient with Grade 1 at screening and/or baseline, study drug interrupted, then discontinued", "result": "normalized"},
      {"measurement": "patients developing a Grade 2 liver function test abnormality in AST and/or ALT levels", "setting": "[4]; after pirfenidone 2403 mg/day", "result": "Fifteen"},
      {"measurement": "patients developing Grade 3 liver function abnormality in AST and/or ALT levels", "setting": "[4]; after pirfenidone administration", "result": "Four"},
      {"measurement": "patients exhibiting a Grade 1 elevation in AST or ALT levels after pirfenidone administration", "setting": "[4]; of 345 IPF patients, 2403 mg/day, patients without a baseline liver function abnormality", "result": 49, "unit": "patients"},
      {"measurement": "patients with Grade 1 liver function test elevation having a treatment emergent adverse event of increased AST or ALT", "setting": "[4]; of the 49 Grade 1 patients", "result": "three"},
      {"measurement": "patients with Grade 2 abnormality with reported treatment emergent adverse events of increased AST or ALT or hepatitis", "setting": "[4]; of the fifteen Grade 2 patients", "result": 12, "unit": "patients"},
      {"measurement": "patients who discontinued study drug for elevated liver function tests", "setting": "[4]; of the four Grade 3 patients", "result": "Two"},
      {"measurement": "patients who discontinued treatment due to abnormal liver function tests in AST and/or ALT levels", "setting": "[4]; of the twelve Grade 2 patients with adverse event, Grade 2 AST coincided with Grade 3 ALT", "result": "One"},
      {"measurement": "outcome of rechallenge with the full dose", "setting": "[4]; one of the seven Grade 2 patients with permanent dose reduction, rechallenged at 2403 mg/day", "result": "recurrence of Grade 2 elevation in ALT levels"},
      {"measurement": "transaminases at study completion", "setting": "[4]; seven Grade 2 patients with permanent dose reduction (3 at 801 mg/day, 4 at 1602 mg/day)", "result": "resolution of transaminases, except for one patient that had a Grade 1 elevation at study completion"},
      {"measurement": "liver enzymes at study completion", "setting": "[4]; two Grade 2 patients, temporary dose reduction or discontinuation, rechallenged and escalated back to 2403 mg/day", "result": "normal liver enzymes"},
      {"measurement": "resolution of abnormalities after discontinuation", "setting": "[4]; two Grade 3 patients who discontinued for elevated liver function tests, Grade 2 and Grade 3 last documented", "result": "had not resolved"}
    ]}
  ]
}
